Results: US10617719B2, “Deep sea water extract and use thereof” (Taiwan DOW Biotech Co., Ltd., priority 2015, dated 2020)

Test system: Helicobacter pylori
Test: Inhibition of H. pylori growth on LB/sheep blood agar plates containing DSW extract
Assay type: cell-based, Helicobacter pylori (ten samples from different patients)
Settings: same concentration of magnesium ions as the DSW extract (MgCl2 285 and 570 mg/L)
Source text: The present invention validates that the active components of the deep sea water extract having ability of inhibiting H. pylori growth are not associated with high magnesium, calcium ions and high hardness. […] Also, the present invention uses mass spectrometry to show a relational graph between the intensity value of the 1,070 component of the DSW extract and inhibiting H. pylori growth rate. In one embodiment, prepare the LB agar having the DSW extract with different hardness, the DSW extract with different concentration of EDTA or different concentration of MgCl2, follow by filtration through the 0.22 μm filter membrane or sterilization in an autoclave. Mix the LB agar with sheep blood, and pour the mixture into each 9-cm culture plate. Let each plate cool until its solid to form agar plate. For the LB agar having different concentration of MgCl2, take 2.85 mg MgCl2, add other nutrients and water to make 10 mL agar plate, the agar plate contains 285 mg/L MgCl2. According to above-mentioned procedure, the agar plats having different concentration of MgCl2 are 285 mg/L and 570 mg/L. The present invention also prepares the LB agar having the DSW extract with 1,200 ppm to 6,000 ppm and the 2,400 ppm DSW extract with different concentration of EDTA. The present invention identifies the active components of the DSW extract having the ability of inhibiting H. pylori growth. […]

## [Cl-].[Cl-].[Mg+2] [magnesium ions, MgCl2]
  ability of inhibiting H. pylori growth: does not have the ability of inhibiting H. pylori growth
